The target in data set [1] is T1, cloned human MT1 receptors (Homo sapiens, UniProt P48039).
T1 construct: expressed in transfected cells
The data set can be described thus: 2-[125I]iodomelatonin competition binding, human MT1 in NIH3T3 cells. To be noted: calculated from IC50 by Cheng-Prusoff, mean of at least three determinations. As to the method: (§1) Membranes were incubated for 90 min at 37° C. in binding buffer (Tris/HCl 50 mM, pH 7.4). The final membrane concentration was 5-10 μg of protein per tube. […] The pKi values are the mean of at least three independent determinations performed in duplicate. To define the functional activity of the compounds of Formula (I) at the MT1 and MT2 receptor subtypes, [^35S]GTPγS binding assays in NIH3T3 cells expressing human-cloned MT1 or MT2 receptors were performed. The amount of bound [^35S]GTPγS is proportional to the level of analogue-induced G-protein activation and is related to the intrinsic activity of the compound (i.e. a compound of Formula (I)) under study. […] Nonspecific binding was assessed using non-radiolabeled GTPγS (10 μM). […] Basal stimulation is the amount of [^35S]GTPγS specifically bound in the absence of the compounds of Formula (I) and was taken as 100%. […] All of the measurements were performed in triplicate.

The target in data set [2] is T2, cloned human MT2 receptors (Homo sapiens, UniProt P49286).
T2 construct: expressed in transfected cells
T2 sequence (P49286 1-362): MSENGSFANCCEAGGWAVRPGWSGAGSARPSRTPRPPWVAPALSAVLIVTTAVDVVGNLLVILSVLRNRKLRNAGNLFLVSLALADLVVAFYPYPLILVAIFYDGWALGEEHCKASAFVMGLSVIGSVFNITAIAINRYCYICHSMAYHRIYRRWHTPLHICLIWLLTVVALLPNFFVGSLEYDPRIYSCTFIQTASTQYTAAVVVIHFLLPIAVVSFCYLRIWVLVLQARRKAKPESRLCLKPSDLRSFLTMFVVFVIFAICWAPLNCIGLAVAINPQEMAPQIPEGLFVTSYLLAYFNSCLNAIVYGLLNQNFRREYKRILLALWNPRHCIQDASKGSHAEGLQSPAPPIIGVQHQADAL
The experiment in a line: 2-[125I]iodomelatonin competition binding, human MT2 in NIH3T3 cells. The settings on record: human MT2 in NIH3T3 cells; calculated from IC50 by Cheng-Prusoff; mean of at least three determinations. As to the method:
as §1

Data set [3] addresses T1, cloned human MT1 receptors. The data set can be described thus: [35S]GTPγS binding assay, NIH3T3 cells expressing human MT1. For MT1 Activity: key: A = agonist; PA = partial agonist; ANT = antagonist; IA = Inverse agonist. The data set is classed as biochemical. The settings on record: for MT1 IAr ± SEM (relative intrinsic activity): maximal net effect relative to MLT. The protocol: as §1
(In general: Binding of GTPγS marks nucleotide exchange on a G protein.)

The target in data set [4] is T2, cloned human MT2 receptors. The experiment in a line: [35S]GTPγS binding assay, NIH3T3 cells expressing human MT2. For MT2 Activity: key: A = agonist; PA = partial agonist; ANT = antagonist; IA = Inverse agonist. The data set is classed as biochemical. To be noted: for MT2 IAr ± SEM (relative intrinsic activity): maximal net effect relative to MLT. As to the method:
as §1

Data set [5] deals with high-affinity MLT receptors. To be noted: read-out: Ki, high-affinity MLT receptors; cited from earlier work.
Data set [6] deals with Adult Sprague Dawley rats. The data set can be described thus: Elevated plus maze (EPM). The class given is in vivo, rat. The settings on record: melatonin 50 mg/kg. As to the method:
The maze is comprised of two open arms (50×10 cm) and two closed arms (50×10×40 cm) that extend from a common central platform (10×10 cm). The apparatus, made of wood (painted black) was elevated to a height of 80 cm above floor level. The closed arms are located opposite one another. Behavior is recorded over a period of 5 min using a video camera positioned directly above the maze and rated by an observer blind to drug conditions. The major measure of interest is the amount of time spent in the open arms. As an index of general activity and distribution, the total number of entries into both open and closed arms was also recorded. […] In order to increase the sensitivity of this test to anxiolytic activity, tests are carried out under normal room illumination (25 W bulb).

pKi: −log10 of the molar value.

As a reminder, the melting point is the temperature, or range, at which the solid turns liquid. What is called pKi is the Ki on a negative log10 scale, so that one unit is a factor of ten.

T1 sequence (P48039 whole entry): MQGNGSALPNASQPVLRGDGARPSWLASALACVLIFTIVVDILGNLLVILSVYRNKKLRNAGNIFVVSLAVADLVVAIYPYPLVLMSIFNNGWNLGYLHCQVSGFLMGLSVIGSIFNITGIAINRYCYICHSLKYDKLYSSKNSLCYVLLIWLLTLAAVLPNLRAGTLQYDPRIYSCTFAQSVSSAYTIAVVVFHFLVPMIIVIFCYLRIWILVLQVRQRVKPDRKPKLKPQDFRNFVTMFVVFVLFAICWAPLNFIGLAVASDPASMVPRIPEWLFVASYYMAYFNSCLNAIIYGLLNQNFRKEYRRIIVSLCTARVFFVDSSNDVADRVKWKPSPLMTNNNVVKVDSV

In the case of `COc1ccc(N(CCNC(C)=O)c2ccccc2)cc1` [5e, N-{-2-[(4-Methoxyphenyl)-phenylamino]ethyl}acetamide], the melting point lay within 102 to 104 °C. Further, the “MT1 pKi” value in data set [1] was 6.11 ± 0.12. For the same compound, the “MT2 pKi” value in data set [2] was 7.56 ± 0.10. Moreover, in data set [3], the “MT1 Activity” value is “ANT” and the “MT1 IAr ± SEM (relative intrinsic activity)” value was 0.02 ± 0.01. In data set [4], the “MT2 Activity” value is given as “ANT” and the “MT2 IAr ± SEM (relative intrinsic activity)” value worked out at 0.06 ± 0.03.
In turn, `COc1cccc(N(C)CCNC(C)=O)c1` [5j, N-{2-[(3-Methoxyphenyl)-methylamino]ethyl}acetamide] showed a melting point of 69 to 71 °C. Besides, the “MT1 pKi” value in data set [1] is recorded as 9.09 ± 0.10. In addition, the “MT2 pKi” value in data set [2] is given as 9.19 ± 0.01. In addition, the “MT1 IAr ± SEM (relative intrinsic activity)” value in data set [3] is listed as 0.95 ± 0.08. The “MT2 IAr ± SEM (relative intrinsic activity)” value in data set [4] is 1.06 ± 0.05.
The corresponding values for `CCCC(=O)NCCN(c1ccccc1)c1cccc(OC)c1` [5n, N-{2-[(3-Methoxyphenyl)-phenylamino]ethyl}butanamide] are 50 to 52 °C, 8.38 ± 0.01, 9.98 ± 0.26, 1.01 ± 0.04 and 0.73 ± 0.02.
For the compound `COc1ccc2[nH]cc(CCNC(C)=O)c2c1` [MLT, N-acetyl-5-methoxytryptamine, reference compound], in data set [5], the pKi was ~10.00. In data set [6], the “Head Dips” value is reported as 7.17 ± 0.89, the “Percentage of time in Closed Arms” value is listed as 73.33 ± 3.02 (P = 0.001) % and the “Percentage of time in Open Arms” value is listed as 26.67 ± 3.0 (P = 0.001) %.

Source of the values: patent publication US8791163B2 (McGill University, priority 2006, dated 2014).
